These results are taken from US11395823B2, “Topical administration of MEK inhibiting agents for the treatment of skin disorders” (Duke University, priority 2018, dated 2022).

The subject of one data set is K5-CreER.Braf^Ca/+ mice. The experiment in a line: Topical treatment of Braf mutation-induced skin tumors and inflammation in K5-CreER.Braf^Ca/+ mice. Format: in vivo. How it is done: Experiments were conducted that tested whether topical dose trametinib can effectively treat the skin lesions induced by Braf mutation. To do this, Braf mutation was induced in the rear back skins of 2-month old K5-CreER.Braf^Ca/+ mice with 4-OHT, and 7 days later, applied five consecutive daily topical doses of trametinib (see, FIG. 3a).
Braf mutant animals: K14-Cre and K5-CreER mice were provided by Duke University. These animals were crossed with Tyr-CreER.Braf^Ca+/−.PTEN−/− mice which were provided by Duke University. Genotyping were performed via PCR. For topical induction, the back skins of adult animals were shaved and treated with two consecutive daily doses of 4-OHT (Sigma, 5 mg/ml in ethanol).
Mouse tissues: For H&E staining of mouse skins, 5 μm frozen tissue sections were fixed with ethanol and stained with Hematoxylin and Eosin. For immunostaining, 5 μm frozen tissue sections were fixed with cold methanol, incubated with and a primary antibody against CD8 (Tonbo Biosciences), and detected with a secondary antibody conjugated to Dylight 488 (Invitrogen) followed by counterstaining with Hoechst 33342. The images were obtained with the Olympus imaging system.

The subject of a further data set is SKH-1Elite mice. The data set can be described thus: UV-induced skin carcinogenesis. Format: in vivo. An excerpt: UV is a primary cause of melanoma and non-melanoma skin cancer. To assess whether topical trametinib inhibits UV-induced skin carcinogenesis, SKH animals (n=10, 5 male and 5 female) were irradiated biweekly with 160 mJ broad band UVB along with pretreatment of solvent or trametinib.
UV induction of skin carcinogenesis: Six weeks old hairless SKH-1Elite mice were obtained from (Jackson Laboratory). Animals were subject to UVB irradiation (160-180 mJ dose) 3 times per week for 20 weeks using rayminder model 2 UVB midband lamp M2D24H and UV513AB digital UVA/UVB (280-400 nm) meter of General Tools. Mouse back skins were pretreated before each UV-radiation with 100 μl of solvent (5% DMSO in 95% acetone:olive oil (3:1 mixture) or 10 to 30 μM trametinib (n=5/group/sex).

Data set [1] deals with recipient mouse T-cell alloreactivity. As to conditions: oral administration; cited from earlier work.
In data set [2] the test system is C57/BL6 mice. The data set can be described thus: Imiquimod (IMQ)-induced psoriasis model.
Data set [3] relates to C57/BL6 mice. The experiment in a line: DNFB-induced atopic dermatitis model (ear swelling).

Each structure is given as a SMILES string.

Regarding `CC(=O)Nc1cccc(-n2c(=O)n(C3CC3)c(=O)c3c(Nc4ccc(I)cc4F)n(C)c(=O)c(C)c32)c1` [trametinib, N-(3-{3-Cyclopropyl-5-[(2-fluoro-4-iodophenyl)amino]-6,8-dimethyl-2,4,7-trioxo-3,4,6,7-tetrahydropyrido[4,3-d]pyrimidin-1 (2H)-yl}phenyl)acetamide], the “skin tumors (clinical images)” value in the data set on K5-CreER.Braf^Ca/+ mice (five consecutive daily topical doses starting 7 days after 4-OHT, by day 11) is “completely regressed”. For the same compound, in the data set with K5-CreER.Braf^Ca/+ mice (topical vs systemic), the “treating oral lesions, topical versus systemic delivery of the same amount” value was “more effective than systemic delivery”. Further, the “CD8+ immune cells in the dermis (immunostaining)” value in the data set on K5-CreER.Braf^Ca/+ mice (topical, five daily doses) is listed as “reduced CD8+ immune cells in the dermis”. In addition, the “epidermal neoplasia (histological analysis, H&E)” value with K5-CreER.Braf^Ca/+ mice (topical, five daily doses) was “regressed epidermal neoplasia”. Besides, the “number of tumor nodules” value with SKH-1Elite mice (10 μM topical pretreatment before each UVB irradiation) and with SKH-1Elite mice (30 μM topical pretreatment before each UVB irradiation) was “significantly lower number of tumor nodules” each time. In addition, the “recipient mouse T-cell alloreactivity” value in data set [1] is on record as “suppresses recipient mouse T-cell alloreactivity without affecting graft-vs-tumor effects”. Besides, the animal weight loss result with C57/BL6 mice [2] (60 μM topical) is “did not induce animal weight loss”. In addition, in the data set with C57/BL6 mice [2] (60 μM topical), the “gross morphological changes of internal organs, including liver, kidney and spleen and lymph nodes” value was “did not induce”. Moreover, the PASI score result in the data set on C57/BL6 mice [2] (60 μM topical, day 3) is “reduced the PASI score”. Moreover, in the data set on C57/BL6 mice [2] (60 μM topical, day 5), the “PASI score difference to control” value is recorded as “differences were minimized”. The IMQ-induced epidermal thickening result in the data set on C57/BL6 mice [2] (topical) was “reduces IMQ-induced epidermal thickening”. Moreover, the “clinical appearance of DNFB challenged right ear lobes” value is “appeared thickened and inflamed” in the data set on C57/BL6 mice [3] (0.2 μM topical); “appeared smooth and normal” with C57/BL6 mice [3] (20 μM topical). Moreover, in the data set on C57/BL6 mice [3] (daily topical 0.2, 2, 20 μM, right ear), the DNFB-induced ear swelling result is “reduced by trametinib at a dose response manner”. Further, in the data set with C57/BL6 mice [3] (daily topical 0.2-20 μM), the “thickness of the control (solvent-treated left) ears” value was “not significantly affected”. In addition, in the data set with C57/BL6 mice [3] (topical), the “thickened epidermis and dermal cellular infiltration of DNFB-treated skins (histology)” value is given as “normalized”. Besides, the “histological appearance of kidney, spleen, and liver tissues” value in the data set on C57/BL6 mice [3] (topical dosage) was “normal histological appearance”.
